Data reported in patent US20260207600A1, “METHODS OF TREATMENT WITH MYOSIN MODULATOR” (MYOKARDIA, INC., priority 2019, published 2026).
Converted amounts (≈) assume the structure as drawn. Read-outs that look alike come from different tables or passages of the source.

Legend:
[1] = tested on: conscious fully-instrumented dogs with normal cardiac function; test: Acute β-AR (dobutamine) challenge after mavacamten in conscious instrumented dogs; type: in vivo, dog
Method: In addition, the effects of MAVA (at 1.5 mg/kg PO, via gavage) on cardiac reserve were evaluated via acute β-AR challenges (dobutamime: 2, 5, and 10 ug/kg/min IV) in conscious fully-instrumented (LVPV group) dogs with normal cardiac function (n=8). These challenges were performed before/after dosing (+3-hour) in control- and MAVA-treated animals both under normal cardiac physiological conditions (n=4) and under (mild) concomitant cardio-depression induced via either selective β-AR blockade (+BB, metoprolol 0.5±0.1 mg/kg PO tid; n=4) or L-type Ca2+-channel blockade (+CCB, verapamil at 5±1 mg/kg PO tid; n=4); pharmacological blockades were established for 7 days prior to the MAVA treatment. Both peak and dose-responses were evaluated at steady state.
Throughout these experiments, analog signals were digitally acquired (1000 Hz) and recorded continuously with a data acquisition/analysis system (IOX; EMKA Technologies). Heart rate (HR), end-systolic (ESP) and end-diastolic pressures (EDP), as well as the peak rates of pressure rise/decline (dP/dtmax and dP/dtmin), the contractility index (CI: dP/dt/P at dP/dtmax), and the time-constant of myocardial relaxation (tau½, time for 50% decay from dP/dtmin) were derived from the LV pressure signal. Meanwhile, the end-systolic (ESV) and end-diastolic volumes (EDV) were measured from the LV volume signal derived from the implanted myocardial crystals. LV volumes were derived assuming a Teichholz model, and stroke volume (SV=EDV−ESV), ejection fraction (EF=SV/EDV), as well as cardiac output (CO=SV·HR) were calculated; in a subset of animals, SV and CO values were verified from data derived from the implanted aortic flow proble. […] The slopes of the preload-recruitable stroke work (PRSW; stroke work vs. EDV) and the end-systolic pressure-volume relationships (ESPVR; end-systolic elastance, Ees) were derived by software using linear models (IOX; EMKA Technologies), and were used as load-independent inotropic indices. Ventricular load was estimated by the effective arterial elastance (Ea=ESP/SV). […]

[2] = API thermodynamic solubility; type: physicochemical; conditions: thermodynamic from solid
[3] = Solubility estimates at ambient temperature; type: physicochemical; conditions: thermodynamic from solid, Form A (Lot 2-4), read-out: Solubility (estimate)
Method: Solubilities were calculated based on the total solvent used to give a solution; actual solubilities may be greater because of the volume of solvent portions utilized or a slow rate of dissolution. […] If dissolution occurred at the first aliquot, the value was reported as “>”.
Solubility estimates at ambient temperature were performed in 25 solvents and solvent systems using Form A (Lot 2-4) (Table 13.3).

[4] = Stable form analysis (slurry experiments, XRPD); type: physicochemical; conditions: for XRPD Result (stable form screening): Lot 2-4
Method: Slurrying. Slurries of the API were prepared by adding sufficient solids to a given solvent or solvent system at ambient conditions or at elevated temperature such that undissolved solids were present. The mixtures were then agitated in a closed vial at ambient or elevated temperature for an extended period of time. Solids were collected by vacuum filtration and analyzed.
A stable form analysis of the API (Lot 2-4) was performed to identify the preferred solid form within typical process conditions (e.g., ambient to 85° C., atmospheric pressure, with a variety of solvents including water).
A total of 17 slurries were held stirring at ambient temperature or with temperature cycling between 20 and 30 or 40° C. (with a few brief exposures to approximately 46° C.) for extended time periods (Table 13.4). Solids from the slurry experiments were filtered, air-dried, then analyzed by XRPD.

SMILES: CC(C)n1c(=O)cc(N[C@@H](C)c2ccccc2)[nH]c1=O [mavacamten, (S)-3-Isopropyl-6-((1-phenylethyl)amino)pyrimidine-2, 4(1H,3H)-dione]
- β-AR induced acceleration of tau ([1]; at any given dP/dtmax gain): enhanced the β-AR induced acceleration of tau
- dobutamine-triggered stroke-volume/cardiac output recruitments ([1]; before (control) vs under acute mavacamten treatment): comparable stroke-volume/cardiac output recruitments
- β-AR elevations in dP/dtmax and CI ([1]; dobutamine challenge): blunted β-AR elevations in dP/dtmax and CI
- solubility thermodynamic ([2]; DCM, organic solvent or mixture): 1100 µg/mL (≈ 4.02 mM)
- solubility thermodynamic ([2]; DMF, organic solvent or mixture): ~130000 µg/mL (≈ 476 mM)
- solubility thermodynamic ([2]; DMSO, organic solvent or mixture): > 150000 µg/mL
- solubility thermodynamic ([2]; EtOAc, organic solvent or mixture): 1000 µg/mL (≈ 3.66 mM)
- solubility thermodynamic ([2]; EtOH, organic solvent or mixture): 7400 µg/mL (≈ 27.1 mM)
- solubility thermodynamic ([2]; NMP, organic solvent or mixture): > 150000 µg/mL
- solubility thermodynamic ([2]; acetone, organic solvent or mixture): 3300 µg/mL (≈ 12.1 mM)
- solubility thermodynamic ([2]; acetonitrile, organic solvent or mixture): 900 µg/mL (≈ 3.29 mM)
- solubility thermodynamic ([2]; diethyl ether, organic solvent or mixture): 50 µg/mL (≈ 0.183 mM)
- solubility thermodynamic ([2]; hexanes, organic solvent or mixture): < 10 µg/mL
- solubility thermodynamic ([2]; n-heptanes, organic solvent or mixture): < 10 µg/mL
- solubility thermodynamic ([2]; n-hexane, organic solvent or mixture): < 10 µg/mL
- solubility thermodynamic ([2]; p-dioxane, organic solvent or mixture): 1200 µg/mL (≈ 4.39 mM)
- solubility thermodynamic ([2]; water): 10 µg/mL (≈ 0.0366 mM)
- solubility ([3]; aqueous with cosolvent or surfactant or cyclodextrin, DMSO:water (50:50)): < 1000 µg/mL
- solubility ([3]; aqueous with cosolvent or surfactant or cyclodextrin, MeOH:water (50:50)): < 1000 µg/mL
- solubility ([3]; organic solvent or mixture, Anisole): < 1000 µg/mL
- solubility ([3]; organic solvent or mixture, DMF:CHCl3 (90:10)): ~27000 µg/mL (≈ 98.8 mM)
- solubility ([3]; organic solvent or mixture, DMF:EtOAc (80:20)): ~27000 µg/mL (≈ 98.8 mM)
- solubility ([3]; organic solvent or mixture, DMF:EtOH (75:25)): ~28000 µg/mL (≈ 102 mM)
- solubility ([3]; organic solvent or mixture, DMF:anisole (90:10)): ~28000 µg/mL (≈ 102 mM)
- solubility ([3]; organic solvent or mixture, DMF:iPrOH (80:20)): ~43000 µg/mL (≈ 157 mM)
- solubility ([3]; organic solvent or mixture, DMF:toluene (90:10)): ~42000 µg/mL (≈ 154 mM)
- solubility ([3]; organic solvent or mixture, DMSO:p-dioxane (80:20)): > 42000 µg/mL
- solubility ([3]; organic solvent or mixture, DMSO:water (90:10)): ~5000 µg/mL (≈ 18.3 mM)
- solubility ([3]; organic solvent or mixture, HFIPA): > 60000 µg/mL
- solubility ([3]; organic solvent or mixture, HFIPA:water (90:10)): ~28000 µg/mL (≈ 102 mM)
- solubility ([3]; organic solvent or mixture, MIBK): < 1000 µg/mL
- solubility ([3]; organic solvent or mixture, MeOH): ~2000 µg/mL (≈ 7.32 mM)
- solubility ([3]; organic solvent or mixture, MeOH:water (90:10)): < 1000 µg/mL
- solubility ([3]; organic solvent or mixture, NMP:EtOAc (80:20)): ~45000 µg/mL (≈ 165 mM)
- solubility ([3]; organic solvent or mixture, NMP:MeOH (75:25)): ~38000 µg/mL (≈ 139 mM)
- solubility ([3]; organic solvent or mixture, NMP:toluene (80:20)): ~27000 µg/mL (≈ 98.8 mM)
- solubility ([3]; organic solvent or mixture, NMP:water (90:10)): ~23000 µg/mL (≈ 84.1 mM)
- solubility ([3]; organic solvent or mixture, THF): ~2000 µg/mL (≈ 7.32 mM)
- solubility ([3]; organic solvent or mixture, THF:water (90:10)): ~13000 µg/mL (≈ 47.6 mM)
- solubility ([3]; organic solvent or mixture, iPrOH): < 1000 µg/mL
- solubility ([3]; organic solvent or mixture, nitromethane): < 1000 µg/mL
- solubility ([3]; organic solvent or mixture, toluene): < 1000 µg/mL
- solid form obtained from slurry experiments (XRPD) ([4]; 17 slurries, ambient temperature or cycling between 20 and 30 or 40° C., extended time): All slurry experiments yielded Form A, except one with chloroform
- XRPD Result (stable form screening) ([4]; Anisole, Slurry, ~50° C., 4 d): Form A
- XRPD Result (stable form screening) ([4]; CHCl3, TC, 20 to 30° C., 10 d): Form A +
- XRPD Result (stable form screening) ([4]; DCM, Slurry, RT, 17 d): Form A
- XRPD Result (stable form screening) ([4]; DMF:CHCl3 (20:80), Slurry, RT, 17 d): Form A
- XRPD Result (stable form screening) ([4]; DMF:EtOH (20:80), Slurry, RT, 17 d): Form A
- XRPD Result (stable form screening) ([4]; DMSO:water (90:10), Slurry, RT, 3 d, TC, 20 to 30° C., 10 d): Form A
- XRPD Result (stable form screening) ([4]; EtOAc, TC 20 to 40° C., 10 d): Form A
- XRPD Result (stable form screening) ([4]; EtOH, TC 20 to 40° C., 10 d): Form A
- XRPD Result (stable form screening) ([4]; HFIPA:acetone (10:90), Slurry, RT, 17 d): Form A
- XRPD Result (stable form screening) ([4]; MIBK, Slurry, ~80° C., 1 d): Form A
- XRPD Result (stable form screening) ([4]; MeOH, Slurry, RT, 3 d, TC, 20 to 30° C., 10 d): Form A
- XRPD Result (stable form screening) ([4]; NMP:MeOH (10:90), Slurry, RT, 17 d): Form A
- XRPD Result (stable form screening) ([4]; NMP:toluene (80:20), Slurry, RT, 17 d): Form A
- XRPD Result (stable form screening) ([4]; NMP:water (50:50), Slurry, RT, 17 d): Form A
- XRPD Result (stable form screening) ([4]; THF:water (75:25), TC, 20 to 30° C., 10 d): Form A
- XRPD Result (stable form screening) ([4]; THF, Slurry, RT, 3 d, TC, 20 to 40° C., 10 d): Form A
- XRPD Result (stable form screening) ([4]; iPrOH, TC, 20 to 40° C., 10 d): Form A
